These results are taken from publication PMC9045483 (RSC Advances, 2022).

One experiment deals with HCT116. Briefly: In vitro cytotoxic activity, MTT colorimetric assay, HCT116. In kind it is cell-based. Particulars: Homo sapiens, HCT-116, read-out: IC50 HCT116.
Another experiment concerns MCF-7. Briefly: In vitro cytotoxic activity, MTT colorimetric assay, MCF-7. Particulars: Homo sapiens, MCF7, read-out: IC50 MCF-7. The class given is cell-based. A general note: Formazan colour is commonly taken as a measure of viable cells.
In a further experiment the test system is HepG2. Briefly: In vitro cytotoxic activity, MTT colorimetric assay, HepG2. Particulars: Homo sapiens, HepG2, read-out: IC50 HepG2. In kind it is cell-based.
For a further experiment, the system named is A549. Briefly: In vitro cytotoxic activity, MTT colorimetric assay, A549. In kind it is cell-based. Particulars: Homo sapiens, A549, read-out: IC50 A549.
The target of another experiment is VEGFR-2 (Homo sapiens, UniProt P35968). Briefly: biochemical.
Sequence of VEGFR-2 (P35968 20-1356): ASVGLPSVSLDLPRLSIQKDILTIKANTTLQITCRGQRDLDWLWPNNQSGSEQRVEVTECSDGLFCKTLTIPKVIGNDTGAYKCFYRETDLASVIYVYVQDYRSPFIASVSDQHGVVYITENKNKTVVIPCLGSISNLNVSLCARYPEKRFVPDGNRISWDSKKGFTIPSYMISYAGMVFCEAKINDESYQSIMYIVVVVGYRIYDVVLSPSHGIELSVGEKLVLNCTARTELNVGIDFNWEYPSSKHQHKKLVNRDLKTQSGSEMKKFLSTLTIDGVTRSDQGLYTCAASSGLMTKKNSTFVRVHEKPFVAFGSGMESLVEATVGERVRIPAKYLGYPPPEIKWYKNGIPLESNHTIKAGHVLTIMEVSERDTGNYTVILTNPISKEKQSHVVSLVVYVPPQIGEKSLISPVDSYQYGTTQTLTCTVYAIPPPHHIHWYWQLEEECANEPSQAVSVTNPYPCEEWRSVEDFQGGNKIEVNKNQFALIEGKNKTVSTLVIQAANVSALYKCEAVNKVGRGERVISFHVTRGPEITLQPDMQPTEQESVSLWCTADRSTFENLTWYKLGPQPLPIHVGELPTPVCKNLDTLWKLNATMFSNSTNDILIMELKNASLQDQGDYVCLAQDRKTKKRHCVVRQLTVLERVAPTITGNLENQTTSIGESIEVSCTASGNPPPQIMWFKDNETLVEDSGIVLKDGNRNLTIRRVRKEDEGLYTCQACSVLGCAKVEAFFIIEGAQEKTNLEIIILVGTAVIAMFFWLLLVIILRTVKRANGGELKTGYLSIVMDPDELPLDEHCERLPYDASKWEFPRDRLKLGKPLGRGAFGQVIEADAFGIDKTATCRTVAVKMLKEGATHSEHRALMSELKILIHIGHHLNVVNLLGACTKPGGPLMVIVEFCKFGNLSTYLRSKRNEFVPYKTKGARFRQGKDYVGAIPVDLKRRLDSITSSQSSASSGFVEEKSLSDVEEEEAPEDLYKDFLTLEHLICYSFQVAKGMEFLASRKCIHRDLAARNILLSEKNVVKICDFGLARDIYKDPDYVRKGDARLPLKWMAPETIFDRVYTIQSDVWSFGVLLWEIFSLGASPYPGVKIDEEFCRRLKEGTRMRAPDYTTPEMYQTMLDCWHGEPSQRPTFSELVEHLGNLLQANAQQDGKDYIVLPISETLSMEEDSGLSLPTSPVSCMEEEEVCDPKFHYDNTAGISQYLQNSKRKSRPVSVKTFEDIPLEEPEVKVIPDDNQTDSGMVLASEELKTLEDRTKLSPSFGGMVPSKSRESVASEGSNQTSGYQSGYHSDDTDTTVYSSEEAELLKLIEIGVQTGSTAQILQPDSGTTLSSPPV
The target of the next experiment is EGFR^T790M (Homo sapiens, UniProt P00533, T790M). Briefly: EGFR^T790M kinase inhibitory assay. The class given is biochemical.
Sequence of EGFR^T790M (P00533 25-1210 T790M): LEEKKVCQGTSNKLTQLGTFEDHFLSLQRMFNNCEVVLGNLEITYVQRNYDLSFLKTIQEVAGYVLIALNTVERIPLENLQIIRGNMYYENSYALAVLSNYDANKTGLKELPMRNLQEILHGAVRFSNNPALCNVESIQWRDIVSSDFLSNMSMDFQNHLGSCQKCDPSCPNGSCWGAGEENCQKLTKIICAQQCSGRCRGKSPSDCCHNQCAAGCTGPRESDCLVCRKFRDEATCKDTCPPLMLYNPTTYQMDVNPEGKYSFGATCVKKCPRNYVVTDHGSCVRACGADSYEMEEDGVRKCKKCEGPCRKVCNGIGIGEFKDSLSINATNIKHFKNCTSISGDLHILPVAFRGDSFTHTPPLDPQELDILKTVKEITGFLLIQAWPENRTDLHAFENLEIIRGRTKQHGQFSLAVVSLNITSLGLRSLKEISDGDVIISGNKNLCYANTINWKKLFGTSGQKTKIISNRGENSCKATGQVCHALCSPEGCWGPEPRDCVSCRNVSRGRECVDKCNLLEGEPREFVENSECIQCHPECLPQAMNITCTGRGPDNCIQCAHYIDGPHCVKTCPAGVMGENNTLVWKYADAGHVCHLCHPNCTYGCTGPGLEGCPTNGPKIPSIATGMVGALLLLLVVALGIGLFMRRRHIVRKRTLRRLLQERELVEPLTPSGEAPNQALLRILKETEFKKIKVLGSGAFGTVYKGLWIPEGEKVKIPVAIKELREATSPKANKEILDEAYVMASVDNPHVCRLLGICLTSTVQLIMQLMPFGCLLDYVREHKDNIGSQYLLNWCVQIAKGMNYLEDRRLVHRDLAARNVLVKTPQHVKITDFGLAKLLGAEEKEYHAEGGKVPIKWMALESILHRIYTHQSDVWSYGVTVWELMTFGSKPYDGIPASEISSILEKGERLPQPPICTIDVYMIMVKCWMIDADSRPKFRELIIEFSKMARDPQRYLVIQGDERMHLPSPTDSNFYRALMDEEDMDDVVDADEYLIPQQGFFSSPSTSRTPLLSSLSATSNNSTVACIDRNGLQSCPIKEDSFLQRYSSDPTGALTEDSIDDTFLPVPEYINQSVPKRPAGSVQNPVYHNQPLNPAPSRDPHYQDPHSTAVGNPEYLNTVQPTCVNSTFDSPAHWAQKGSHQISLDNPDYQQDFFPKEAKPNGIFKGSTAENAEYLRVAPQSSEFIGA

With `O=C1NC(=O)C(=Cc2ccco2)S1` [Compound 3, 5-(furan-2-ylmethylene)thiazolidine-2,4-dione], the 50% inhibitory concentration (IC50) with HCT116 was 58.2 µM.
For the compound `O=C(CN1C(=O)SC(=Cc2cccs2)C1=O)Nc1ccccc1` [Compound 4a, 2-[2,4-Dioxo-5-(thiophen-2-ylmethylene)thiazolidin-3-yl]-N-phenylacetamide], the IC50 with MCF-7 is 63.6 ± 3.8 µM; in the experiment on HepG2 it was 52.1 ± 5.2 µM; in the experiment with HCT116 it was 58.2 ± 0.7 µM; in the experiment on A549 it was 51 ± 2.5 µM.
As for `O=C(CN1C(=O)SC(=Cc2cccs2)C1=O)Nc1ccc(Cl)cc1` [Compound 4b, N-(4-Chlorophenyl)-2-[2,4-dioxo-5-(thiophen-2-ylmethylene)thiazolidin-3-yl]acetamide], the half-maximal inhibitory concentration (IC50) is 36.9 ± 1.3 µM with MCF-7, 35.4 ± 5.1 µM in the experiment on HepG2, 38.4 ± 3.9 µM in the experiment with HCT116 and 36.1 ± 1.9 µM in the experiment with A549.
The corresponding values for `O=C(CN1C(=O)SC(=Cc2cccs2)C1=O)Nc1ccc(F)cc1` [Compound 4c, 2-[2,4-Dioxo-5-(thiophen-2-ylmethylene)thiazolidin-3-yl]-N-(4-fluorophenyl)acetamide] are 39 ± 1.3 µM, 34.2 ± 5.1 µM, 42.5 ± 3.9 µM and 38.3 ± 1.9 µM.
In the case of `O=C(CN1C(=O)SC(=Cc2cccs2)C1=O)Nc1ccc(Br)cc1` [Compound 4d, N-(4-Bromophenyl)-2-[2,4-dioxo-5-(thiophen-2-ylmethylene)thiazolidin-3-yl]acetamide], the IC50 with MCF-7 was 22.7 ± 3.9 µM; in the experiment on HepG2, 13.5 ± 3.9 µM; at VEGFR-2, 0.255 µM; in the experiment on HCT116 it was 16.6 ± 3.9 µM; in the experiment on A549, 19 ± 3.9 µM; against EGFR^T790M, 0.42 µM.
Turning to `Cc1ccc(NC(=O)CN2C(=O)SC(=Cc3cccs3)C2=O)cc1` [Compound 4e, 2-[2,4-Dioxo-5-(thiophen-2-ylmethylene)thiazolidin-3-yl]-N-(p-tolyl)acetamide], the IC50 in the experiment on MCF-7 turned out to be 25.2 ± 3.9 µM; with HepG2 it was 24.5 ± 3.9 µM; in the experiment with HCT116, 21.3 ± 3.9 µM; with A549, 34 ± 3.9 µM.
For the compound `COc1ccc(NC(=O)CN2C(=O)SC(=Cc3cccs3)C2=O)cc1` [Compound 4f, 2-[2,4-Dioxo-5-(thiophen-2-ylmethylene)thiazolidin-3-yl]-N-(4-methoxyphenyl)acetamide], the IC50 is 22.3 ± 3.9 µM in the experiment on MCF-7; 10.2 ± 3.9 µM in the experiment with HepG2; 17.7 ± 3.9 µM in the experiment on HCT116; 22.7 ± 3.9 µM in the experiment with A549; 0.36 µM against EGFR^T790M.
On to `O=C(CN1C(=O)SC(=Cc2cccs2)C1=O)Nc1ccc(C(=O)O)cc1` [Compound 4g, 4-{2-[2,4-Dioxo-5-(thiophen-2-ylmethylene)thiazolidin-3-yl]acetamido}benzoic acid], for which the half-inhibitory concentration (IC50) in the experiment on MCF-7 was 10.7 ± 3.9 µM; in the experiment with HepG2, 6.22 ± 3.9 µM; with HCT116, 11.2 ± 3.9 µM; in the experiment with A549, 12.9 ± 3.9 µM; against EGFR^T790M it was 0.23 µM.
As to `O=C(CN1C(=O)SC(=Cc2ccco2)C1=O)Nc1ccccc1` [Compound 5a, 2-[5-(Furan-2-ylmethylene)-2,4-dioxothiazolidin-3-yl]-N-phenylacetamide], the half-inhibitory concentration (IC50) in the experiment with MCF-7 worked out at 59.6 ± 3.8 µM; in the experiment on HepG2, 52.1 ± 5.2 µM; in the experiment with HCT116, 48.3 ± 0.7 µM; in the experiment with A549, 53.2 ± 2.5 µM.
Consider `O=C(CN1C(=O)SC(=Cc2ccco2)C1=O)Nc1ccc(Cl)cc1` [Compound 5b, N-(4-Chlorophenyl)-2-[5-(furan-2-ylmethylene)-2,4-dioxothiazolidin-3-yl]acetamide], for which the 50% inhibitory concentration (IC50) stood at 25.7 ± 3.9 µM in the experiment on MCF-7, 23.8 ± 3.9 µM with HepG2, 28.2 ± 3.9 µM in the experiment on HCT116 and 36.2 ± 3.9 µM with A549.
Take `O=C(CN1C(=O)SC(=Cc2ccco2)C1=O)Nc1ccc(F)cc1` [Compound 5c, N-(4-Fluorophenyl)-2-[5-(furan-2-ylmethylene)-2,4-dioxothiazolidin-3-yl]acetamide]: the concentration for half-maximal inhibition (IC50) with MCF-7 turned out to be 28.6 ± 1.3 µM; in the experiment on HepG2 it was 24.1 ± 2.5 µM; in the experiment on HCT116, 35.7 ± 3.9 µM; in the experiment on A549, 35.4 ± 1.9 µM.
Take `Cc1ccc(NC(=O)CN2C(=O)SC(=Cc3ccco3)C2=O)cc1` [Compound 5d, 2-[5-(Furan-2-ylmethylene)-2,4-dioxothiazolidin-3-yl]-N-(p-tolyl)acetamide]: the IC50 in the experiment on MCF-7 amounted to 25.3 ± 4.5 µM; with HepG2, 23.6 ± 3.9 µM; at VEGFR-2, 0.276 µM; in the experiment on HCT116, 26.4 ± 1.4 µM; with A549 it was 29.7 ± 4.1 µM.
For the compound `CC(C)c1ccc(NC(=O)CN2C(=O)SC(=Cc3ccco3)C2=O)cc1` [Compound 5e, 2-[5-(Furan-2-ylmethylene)-2,4-dioxothiazolidin-3-yl]-N-(4-isopropylphenyl)acetamide], the IC50 with MCF-7 came to 14.5 ± 3.9 µM; with HepG2, 23.8 ± 3.9 µM; on VEGFR-2 it was 0.263 µM; with HCT116, 10.7 ± 3.9 µM; in the experiment on A549, 32.9 ± 3.9 µM; against EGFR^T790M, 0.41 µM.
Regarding `COc1ccc(NC(=O)CN2C(=O)SC(=Cc3ccco3)C2=O)cc1` [Compound 5f, 2-[5-(Furan-2-ylmethylene)-2,4-dioxothiazolidin-3-yl]-N-(4-methoxyphenyl)acetamide], the 50% inhibitory concentration (IC50) with MCF-7 worked out at 18.5 ± 3.9 µM; in the experiment on HepG2, 11 ± 3.9 µM; at VEGFR-2, 0.247 µM; in the experiment with HCT116, 15.7 ± 3.9 µM; in the experiment with A549, 13 ± 3.9 µM; against EGFR^T790M, 0.35 µM.
Consider `O=C(CN1C(=O)SC(=Cc2ccco2)C1=O)Nc1ccc(C(=O)O)cc1` [Compound 5g, 4-{2-[5-(Furan-2-ylmethylene)-2,4-dioxothiazolidin-3-yl]acetamido}benzoic acid], for which the concentration for half-maximal inhibition (IC50) in the experiment with MCF-7 worked out at 10.7 ± 3.9 µM; in the experiment on HepG2, 3.86 ± 3.9 µM; with HCT116, 9.04 ± 3.9 µM; in the experiment on A549 it was 7.55 ± 3.9 µM.
As to `CNC(=O)c1cc(Oc2ccc(NC(=O)Nc3ccc(Cl)c(C(F)(F)F)c3)cc2)ccn1` [Sorafenib, sorafenib, reference compound], the IC50 with HepG2 worked out at 4 ± 0.33 µM.

In general, IC50 refers to the point on the concentration scale where inhibition reaches its midpoint.
